# ChEMBL document CHEMBL5385888, “Structure-based discovery of pyrazolamides as novel ERRγ inverse agonists” (Eur J Med Chem, 2023)
# Calls of active or inactive are those of the source. The rule behind the calls is not given here.
# Molecular target: T1, Estrogen-related receptor gamma (Mus musculus, UniProt P62509)
# T1 sequence (P62509 whole entry): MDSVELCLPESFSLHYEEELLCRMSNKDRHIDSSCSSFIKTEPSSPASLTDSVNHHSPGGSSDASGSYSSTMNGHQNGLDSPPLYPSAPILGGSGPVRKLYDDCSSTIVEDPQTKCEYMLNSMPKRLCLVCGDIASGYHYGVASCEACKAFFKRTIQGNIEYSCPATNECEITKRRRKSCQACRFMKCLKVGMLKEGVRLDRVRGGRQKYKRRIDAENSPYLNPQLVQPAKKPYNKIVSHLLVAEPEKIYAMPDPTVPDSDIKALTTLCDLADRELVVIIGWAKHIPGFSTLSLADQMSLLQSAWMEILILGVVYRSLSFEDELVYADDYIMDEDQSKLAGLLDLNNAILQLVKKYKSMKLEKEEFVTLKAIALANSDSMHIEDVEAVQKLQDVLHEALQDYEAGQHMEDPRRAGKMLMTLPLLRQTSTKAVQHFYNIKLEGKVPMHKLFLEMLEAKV
# Test: Inverse agonist activity at Gal4-tagged mouse ERR-gamma LBD transfected in HEK293T cells co-expressing FR-luc assessed as inhibition of transcriptional activity incubated for 24 hrs by luciferase reporter gene assay
# Type: cell-based
# Settings: not given
row,Compound,IC50 [µM]
1,COc1cccc(Oc2cc(N)cc(NC(=O)c3cn(-c4ccccc4)nc3-c3ccccc3)c2)c1,13.5
2,COc1cccc(-c2nn(-c3ccccc3)cc2C(=O)Nc2cc(N)cc(Oc3cccnc3)c2)c1,2.91
3,COC(=O)c1cccc(Oc2cc(N)cc(NC(=O)c3cn(-c4ccccc4)nc3-c3ccccc3)c2)c1,8.42
4,O=C(Nc1cccc(Oc2cccnc2)c1)c1cn(-c2ccccc2)nc1-c1ccccc1,1.33
5,COc1ccc(-c2nn(-c3ccccc3)cc2C(=O)Nc2ccc(Oc3ccc(C)cc3OC)cc2)cc1OC,10.4
6,COc1cc(C)ccc1Oc1ccc(NC(=O)c2cn(-c3ccccc3)nc2-c2ccccc2)cc1,9.48
7,COc1ccc(-c2nn(-c3ccccc3)cc2C(=O)Nc2ccc(Oc3ccc(C(C)C)cc3)cc2)cc1OC,9.95
8,O=C(Nc1cc(Oc2cccnc2)cc(C(F)(F)F)c1)c1cn(-c2ccccc2)nc1-c1ccccc1,6.75
9,COc1cccc(Oc2cc(N)cc(NC(=O)c3cn(-c4ccccc4)nc3-c3cccc(OC)c3)c2)c1,8.47
10,COc1cc(C)ccc1Oc1ccc(NC(=O)c2cn(-c3ccccc3)nc2-c2ccc(C)cc2)cc1,5.48
11,COc1cccc(-c2nn(-c3ccccc3)cc2C(=O)Nc2cccc(Oc3cccnc3)c2)c1,2.11

# Molecular target: T2, Estrogen-related receptor gamma (Mus musculus) (UniProt P62509)
# T2 sequence (whole entry): T1 sequence (P62509 whole entry)
# Test: Inverse agonist activity at Gal4-tagged mouse ERR-gamma LBD transfected in HEK293T cells co-expressing FR-luc assessed as inhibition of transcriptional activity at 10 uM incubated for 24 hrs by luciferase reporter gene assay
# Type: cell-based
# Settings: not given
row,Compound,inhibition
1,COc1cccc(-c2nn(-c3ccccc3)cc2C(=O)Nc2cc(N)cc(OCCN(C)C)c2)c1,inactive
2,CN(C)CCCOc1cc(NC(=O)c2cn(-c3ccccc3)nc2-c2ccccc2)cc(C(F)(F)F)c1,inactive
3,COc1cccc(-c2nn(-c3ccccc3)cc2C(=O)Nc2cc(OCCCN(C)C)cc(C(F)(F)F)c2)c1,inactive
4,CN(C)CCOc1cc(NC(=O)c2cn(-c3ccccc3)nc2-c2ccccc2)cc(C(F)(F)F)c1,inactive
5,CCN(CC)C(=O)c1ccc(-n2cc(C(=O)Nc3cc(N)cc(Oc4cccnc4)c3)c(-c3ccccc3)n2)cc1,inactive
6,CN(C)CCCOc1cc(N)cc(NC(=O)c2cn(-c3ccccc3)nc2-c2ccccc2)c1,inactive
7,COC(=O)c1ccc(-n2cc(C(=O)Nc3cc(N)cc(Oc4cccnc4)c3)c(-c3ccccc3)n2)cc1,inactive
8,COc1cccc(-c2nn(-c3ccccc3)cc2C(=O)Nc2cc(OCCN(C)C)cc(C(F)(F)F)c2)c1,inactive
9,Nc1cc(NC(=O)c2cn(-c3ccc(C(=O)O)cc3)nc2-c2ccccc2)cc(Oc2cccnc2)c1,inactive
10,Nc1cc(NC(=O)c2cn(-c3ccc(CO)cc3)nc2-c2ccccc2)cc(Oc2cccnc2)c1,inactive
11,COc1cccc(-c2nn(-c3ccccc3)cc2C(=O)Nc2cc(N)cc(OCCCN(C)C)c2)c1,inactive

# Same assay, conditions: filed as inverse agonist
row,Compound,Activity
1,Cc1ccc(-c2nn(-c3ccccc3)cc2C(=O)Nc2ccc(Oc3ccc(C(C)C)cc3)cc2)cc1,Active
